Reference: patent US9902696B2, “1,4-substituted piperidine derivatives” (Cephalon, Inc., priority 2015, dated 2018)
Counter-ions that a name gives are not always drawn.

These compounds were tested against T1, recombinant human baculovirus-expressed GST-tagged FASN (Homo sapiens, UniProt P49327) (assay: FASN enzyme activity assay, fluorescence-based detection of CoA with CPM). Details: 5 nM FASN, 150 μM NADPH, 10 μM acetyl-CoA, 25 μM malonyl-CoA, 90 minutes incubation; read-out: IC50 data for Additional Compounds of Formulae I-V(a): Activity.
T1 construct: GST
Type: biochemical
Procedure, shortened: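 Human GST-tagged FASN, baculovirus-expressed (5 nM), in 50 mM HEPES pH 7.5 with 150 μM NADPH, 10 μM acetyl-CoA, 25 μM malonyl-CoA, 0.5% DMSO; malonyl-CoA-started, 90 min. Released CoA detected with CPM (50 μM dilution), 30 min, fluorescence ex 390/em 530. IC50 from variable-slope sigmoidal fit of % inhibition versus log concentration.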

T1 sequence (P49327 whole entry): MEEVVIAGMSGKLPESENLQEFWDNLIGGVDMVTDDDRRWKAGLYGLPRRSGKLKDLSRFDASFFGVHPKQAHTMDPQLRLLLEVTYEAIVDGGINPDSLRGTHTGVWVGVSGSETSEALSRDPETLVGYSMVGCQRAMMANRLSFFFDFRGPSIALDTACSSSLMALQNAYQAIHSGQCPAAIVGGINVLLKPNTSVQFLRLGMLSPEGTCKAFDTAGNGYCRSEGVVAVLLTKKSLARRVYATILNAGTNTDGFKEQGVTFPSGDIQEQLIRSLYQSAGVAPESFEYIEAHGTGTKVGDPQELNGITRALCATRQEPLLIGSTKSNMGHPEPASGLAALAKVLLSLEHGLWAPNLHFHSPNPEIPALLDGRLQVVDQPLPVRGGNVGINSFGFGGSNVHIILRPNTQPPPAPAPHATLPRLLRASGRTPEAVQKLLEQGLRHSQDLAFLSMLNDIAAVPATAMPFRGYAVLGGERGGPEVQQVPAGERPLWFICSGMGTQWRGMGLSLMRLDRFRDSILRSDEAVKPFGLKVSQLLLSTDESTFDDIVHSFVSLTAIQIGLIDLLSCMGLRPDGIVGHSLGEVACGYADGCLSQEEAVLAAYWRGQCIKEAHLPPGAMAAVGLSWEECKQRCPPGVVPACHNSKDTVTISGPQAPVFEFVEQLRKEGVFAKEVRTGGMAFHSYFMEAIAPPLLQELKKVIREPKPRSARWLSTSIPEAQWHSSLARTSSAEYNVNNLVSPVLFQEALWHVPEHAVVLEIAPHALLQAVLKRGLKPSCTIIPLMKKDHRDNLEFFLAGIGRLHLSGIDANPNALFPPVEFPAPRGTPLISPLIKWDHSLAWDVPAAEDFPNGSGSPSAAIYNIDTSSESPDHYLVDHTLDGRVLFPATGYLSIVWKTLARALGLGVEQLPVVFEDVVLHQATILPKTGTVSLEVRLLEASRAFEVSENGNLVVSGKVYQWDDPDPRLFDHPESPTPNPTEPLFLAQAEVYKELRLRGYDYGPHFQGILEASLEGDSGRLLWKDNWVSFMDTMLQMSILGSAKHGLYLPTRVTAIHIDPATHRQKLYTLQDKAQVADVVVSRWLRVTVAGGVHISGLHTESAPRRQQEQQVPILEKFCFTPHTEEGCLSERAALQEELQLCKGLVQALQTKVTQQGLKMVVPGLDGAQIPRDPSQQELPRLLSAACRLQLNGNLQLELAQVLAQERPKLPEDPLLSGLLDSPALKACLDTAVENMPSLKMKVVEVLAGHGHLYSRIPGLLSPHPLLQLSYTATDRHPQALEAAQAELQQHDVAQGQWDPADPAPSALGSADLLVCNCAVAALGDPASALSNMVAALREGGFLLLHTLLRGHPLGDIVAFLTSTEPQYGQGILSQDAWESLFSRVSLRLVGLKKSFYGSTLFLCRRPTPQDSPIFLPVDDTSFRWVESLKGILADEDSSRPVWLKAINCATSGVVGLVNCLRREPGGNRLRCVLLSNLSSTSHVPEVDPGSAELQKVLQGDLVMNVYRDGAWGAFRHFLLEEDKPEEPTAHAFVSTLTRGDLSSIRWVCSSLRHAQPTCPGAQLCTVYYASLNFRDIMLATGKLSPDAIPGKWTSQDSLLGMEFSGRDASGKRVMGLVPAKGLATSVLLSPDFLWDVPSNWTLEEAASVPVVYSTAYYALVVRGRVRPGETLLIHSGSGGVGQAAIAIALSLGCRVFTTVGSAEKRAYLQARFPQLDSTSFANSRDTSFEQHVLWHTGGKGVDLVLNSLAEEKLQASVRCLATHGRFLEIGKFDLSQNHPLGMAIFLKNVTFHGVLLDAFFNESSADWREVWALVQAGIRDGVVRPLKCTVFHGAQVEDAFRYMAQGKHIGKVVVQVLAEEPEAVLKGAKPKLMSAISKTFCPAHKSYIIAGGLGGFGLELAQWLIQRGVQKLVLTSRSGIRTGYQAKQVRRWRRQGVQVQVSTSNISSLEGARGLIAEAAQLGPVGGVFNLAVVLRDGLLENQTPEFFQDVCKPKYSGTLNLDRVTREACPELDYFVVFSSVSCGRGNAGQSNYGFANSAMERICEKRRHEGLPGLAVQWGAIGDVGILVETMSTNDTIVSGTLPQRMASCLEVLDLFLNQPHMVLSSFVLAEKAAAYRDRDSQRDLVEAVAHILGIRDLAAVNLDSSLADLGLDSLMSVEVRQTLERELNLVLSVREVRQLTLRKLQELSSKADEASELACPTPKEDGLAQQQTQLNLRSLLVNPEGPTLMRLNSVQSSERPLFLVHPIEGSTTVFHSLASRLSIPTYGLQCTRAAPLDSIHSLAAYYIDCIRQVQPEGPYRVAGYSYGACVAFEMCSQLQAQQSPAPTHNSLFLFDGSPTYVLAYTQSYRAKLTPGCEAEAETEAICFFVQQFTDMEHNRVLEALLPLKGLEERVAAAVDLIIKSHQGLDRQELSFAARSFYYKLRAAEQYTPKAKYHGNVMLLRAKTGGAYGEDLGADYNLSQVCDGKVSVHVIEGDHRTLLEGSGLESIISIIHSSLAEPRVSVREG

| SMILES | IC50 |
| --- | --- |
| CONC(=O)N1CCC(Oc2ccc(-c3ccc4ccnn4c3C)cc2)CC1 [Example 539, N-Methoxyoxy-4-[4-(7-methylpyrazolo[1,5-a]pyridin-6-yl)phenoxy]piperidine-1-carboxamide] | 1 to 99 nM |

Same assay, conditions: 5 nM FASN, 150 μM NADPH, 10 μM acetyl-CoA, 25 μM malonyl-CoA, 90 minutes incubation; read-out: IC50 data for Compounds of Formulae I-V/V(a): Activity

| SMILES | IC50 |
| --- | --- |
| CCC(=O)N1CCC(Oc2ccc(-c3cc(O)c4ccnn4c3)cc2)CC1 [Example 426, 1-{4-[4-(4-Hydroxypyrazolo[1,5-a]pyridin-6-yl)-phenoxy]-piperidin-1-yl}-propan-1-one] | 1000 to 10000 nM |
| CCC(=O)N1CCC(Oc2ccc(-c3cnc4cc(OC)ccc4c3)cc2)CC1 [Example 35, 1-{4-[4-(7-Methoxyquinolin-3-yl)-phenoxy]-piperidin-1-yl}-propan-1-one] | 1 to 99 nM |
| CCC(=O)N1CCC(Oc2ccc(-c3ccc(OCc4ccccc4)cc3F)cc2)CC1 [Example 504, 1-[4-(4′-Benzyloxy-2′-fluoro-biphenyl-4-yloxy)-piperidin-1-yl]-propan-1-one] | 1000 to 10000 nM |
| O=C(C1CCC1)N1CCC(Oc2ccc(-c3ccc(Oc4ccccc4)nc3)cc2)CC1 [Example 391, Cyclobutyl-{4-[4-(6-phenoxy-pyridin-3-yl)-phenoxy]-piperidin-1-yl}-methanone] | 1000 to 10000 nM |
| COc1c(-c2ccc(OC3CCN(C(=O)C4(O)CC4)CC3)cc2)ccc2cccnc12 [Example 303, (1-Hydroxycyclopropyl)-{4-[4-(8-methoxy-quinolin-7-yl)-phenoxy]-piperidin-1-yl}-methanone] | 1 to 99 nM |
| CC(C)C(=O)N1CCC(Sc2ccc(-c3cncc4ccccc34)cc2)CC1 [Example 523, 1-(4-((4-(Isoquinolin-4-yl)phenyl)thio)piperidin-1-yl)-2-methylpropan-1-one HCl] | 1000 to 10000 nM |
| Nc1c(-c2ccc(OC3CCN(C(=O)[C@H]4CCCO4)CC3)cc2)cnc2ccccc12 [Example 234, {4-[4-(4-Aminoquinolin-3-yl)-phenoxy]-piperidin-1-yl}-(R)-tetrahydro-furan-2-yl-methanone] | 100 to 999 nM |
| CCC(=O)N1CCC(Oc2ccc(-c3ccc4c(c3)OCCO4)cc2)CC1 [Example 502, 1-{4-[4-(2,3-Dihydro-1,4-benzodioxin-6-yl)-phenoxy]-piperidin-1-yl}-propan-1-one] | 1000 to 10000 nM |
| CCC(=O)N1CCC(Oc2ccc(-c3cnc(OC)c(OC)c3)cc2)CC1 [Example 498, 1-{4-[4-(5,6-Dimethoxypyridin-3-yl)-phenoxy]-piperidin-1-yl}-propan-1-one] | 1000 to 10000 nM |
| COc1cc2ncc(-c3ccc(OC4CCN(C(=O)[C@H]5CCCO5)CC4)cc3)cc2cc1Cl [Example 449, {4-[4-(6-Chloro-7-methoxyquinolin-3-yl)-phenoxy]-piperidin-1-yl}-(R)-tetrahydrofuran-2-yl-methanone] | 1000 to 10000 nM |
| Cc1c(-c2ccc(OC3CCN(C(=O)C4CC4)CC3C)cc2)ccc2cccnc12 (stereo not shown) [Example 376, Cyclopropyl-{3-methyl-4-[4-(8-methylquinolin-7-yl)-phenoxy]-piperidin-1-yl}-methanone, TFA salt] | 1 to 99 nM |
| COc1cc2ncc(-c3ccc(OC4CCN(C(=O)[C@H]5CCCO5)CC4)cc3)cc2cc1C [Example 443, {4-[4-(7-Methoxy-6-methylquinolin-3-yl)-phenoxy]-piperidin-1-yl}-(R)-tetrahydrofuran-2-yl-methanone] | 1000 to 10000 nM |
| O=C([C@H]1CCCO1)N1CCC(Oc2ccc(-c3ccc4nnc(C(F)(F)F)n4c3)cc2)CC1 [Example 161, (R)-Tetrahydrofuran-2-yl-{4-[4-(3-trifluoromethyl-1,2,4-triazolo[4,3-a]pyridin-6-yl)-phenoxy]-piperidin-1-yl}-methanone] | 1000 to 10000 nM |
| CCC(=O)N1CCC(N(C)c2ccc(-c3cnc4ccccc4c3)cc2)CC1 [Example 524, 1-{4-[Methyl-(4-quinolin-3-yl-phenyl)-amino]-piperidin-1-yl}-propan-1-one, HCl] | 100 to 999 nM |
| CCC(=O)N1CCC(Oc2ccc(-c3cc(C)cc4ncccc34)cc2)CC1 [Example 348, 1-(4-(4-(7-methylquinolin-5-yl)phenoxy)piperidin-1-yl)propan-1-one HCl] | 1 to 99 nM |
